Assay results published in ChEMBL document CHEMBL3352048, “Development of 2-(4-oxoquinazolin-3(4H)-yl)acetamide derivatives as novel enoyl-acyl carrier protein reductase (InhA) inhibitors for the treatment of tuberculosis” (Eur J Med Chem, 2014).

Tested on: Mycobacterium tuberculosis
Assay: Antimycobacterial activity against isoniazid, rifampicin, ofloxacin and kanamycin-resistant Mycobacterium tuberculosis H37Rv ATCC 27294 clinical isolate after 28 days by two-fold serial dilution assay in presence of […] piperine efflux pump inhibitor
Type: functional
Settings: H37Rv ATCC 27294, 672 h

Row | SMILES | MIC
1 | O=C(Cn1cnc2ccccc2c1=O)NCc1nc2ccc([N+](=O)[O-])cc2s1 | 4.09 µM
2 | O=C(Cn1cnc2ccc(Cl)cc2c1=O)NCc1cccs1 | 37.4 µM
3 | O=C(Cn1cnc2ccc(Cl)cc2c1=O)Nc1cc(C(F)(F)F)ccc1Cl | 60.1 µM
4 | Cc1nc2ccccc2c(=O)n1CC(=O)NCc1cccs1 | 19.9 µM
5 | O=C(Cn1cnc2ccccc2c1=O)Nc1cc(C(F)(F)F)ccc1Cl | 8.18 µM
6 | CC[C@@H](CO)NCCN[C@@H](CC)CO [ETHAMBUTOL] | 245 µM
7 | NNC(=O)c1ccncc1 [ISONIAZID] | 45.6 µM
8 | O=C(Cn1cnc2ccccc2c1=O)NCc1cccs1 | 20.9 µM
9 | Cc1nc2ccc(Cl)cc2c(=O)n1CC(=O)Nc1ccccc1 | 19.1 µM
10 | O=C(Cn1cnc2ccccc2c1=O)Nc1ccccc1 | 22.4 µM
11 | O=C(Cn1cnc2ccccc2c1=O)NCc1ccco1 | 11 µM
12 | O=C(Cn1cnc2ccc(Cl)cc2c1=O)Nc1ccccc1 | 39.8 µM
13 | CO[C@H]1/C=C/O[C@@]2(C)Oc3c(C)c(O)c4c(O)c(c(/C=N/N5CCN(C)CC5)c(O)c4c3C2=O)NC(=O)/C(C)=C\C=C\[C@H](C)[C@H](O)[C@@H](C)[C@@H](O)[C@@H](C)[C@H](OC(C)=O)[C@@H]1C [RIFAMPIN] | 30.4 µM
14 | Cc1nc2ccc(Cl)cc2c(=O)n1CC(=O)NCc1ccco1 | 18.8 µM
15 | O=C(Cn1cnc2ccc(Cl)cc2c1=O)NCc1ccco1 | 39.3 µM
